The values below are quoted from earlier work in patent publication US6585958B1, “Medicinal aerosol formulations” (Jago Research AG, priority 1998, dated 2003).

The conditions of the series: at 20° C.

In the case of `FCC(F)(F)F` [HFA 134a, 1,1,1,2-tetrafluoroethane], the density result is reported as “about 1.2 mg/ml” and the vapor pressure entry was “about 6 bar”.

In the case of `FC(C(F)(F)F)C(F)(F)F` [HFA 227, 1,1,1,2,3,3,3-heptafluoropropane], the density entry was “about 1.4 mg/ml” and the vapor pressure entry was “about 4.2 bar”.
